# What was measured:
# [1] = molecular target: T1, human serum albumin (HSA) (Homo sapiens, UniProt P02768); assay: Spectral fluorescent titration of the dyes with HSA in PBS; assay type: binding; settings: for nSc, stoichiometric coefficient (Scatchard): HSA (nSc = 1 taken for HSA); for KeffBH, effective complexation constant (Benesi–Hildebrand): fluorescent titration; for αb, proportion of bound dye: cbiomol = 5 × 10^−5 mol L^−1; for Fmax/F0, fluorescence growth at 100% binding: from the Benesi–Hildebrand dependence; for K2Sc, complexation constant (Scatchard): nSc = 1; for φfl^b, fluorescence quantum yield of the dye in the presence of biopolymer: cHSA~5 × 10^−5 mol L^−1; for LOD: detection of HSA; for LOQ: quantification of HSA
# T1 construct: purchased Sigma-Aldrich
# T1 sequence (P02768 25-609): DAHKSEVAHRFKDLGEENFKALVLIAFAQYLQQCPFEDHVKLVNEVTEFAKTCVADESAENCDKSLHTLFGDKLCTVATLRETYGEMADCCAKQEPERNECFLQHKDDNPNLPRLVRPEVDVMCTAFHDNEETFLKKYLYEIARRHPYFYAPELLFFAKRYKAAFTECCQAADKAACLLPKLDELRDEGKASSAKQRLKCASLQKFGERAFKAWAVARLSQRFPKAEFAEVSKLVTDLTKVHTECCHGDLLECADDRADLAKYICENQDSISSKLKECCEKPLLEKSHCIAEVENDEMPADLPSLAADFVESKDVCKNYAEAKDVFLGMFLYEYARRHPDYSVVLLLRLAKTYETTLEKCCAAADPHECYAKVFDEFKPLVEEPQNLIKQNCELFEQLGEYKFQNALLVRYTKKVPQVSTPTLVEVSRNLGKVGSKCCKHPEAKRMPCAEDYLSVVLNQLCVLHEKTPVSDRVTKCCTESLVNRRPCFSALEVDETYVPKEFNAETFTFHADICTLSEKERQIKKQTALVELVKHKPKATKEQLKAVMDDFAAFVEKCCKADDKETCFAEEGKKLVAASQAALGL
# Text: Complexation of MCD 1–4 with DNA (double-stranded and single-stranded) and with human serum albumin (HSA) was studied by spectral fluorescent methods in a wide range of biopolymer concentrations (cdsDNA = 0–1.5 × 10^−4 mol L^−1; cssDNA = 0–1.4 × 10^−4 mol L^−1; cHSA = 0–1.4 × 10^−4 mol L^−1 in PBS buffer). The absorption, fluorescence, and fluorescence excitation spectra of MCD 1 and 3 in the presence of dsDNA are shown in Figure 3 and Figure 4, respectively.
# The complication of chemical equilibrium, and the variety of interactions between MCD and biopolymer (dye aggregation/deaggregation, the possibility of forming complexes of several types with DNA/HSA) makes it problematic to determine the exact values of the complexation constants of the dyes with DNA. The values of the effective equilibrium constants of the complexation reaction of MCD with biopolymers (Keff, L mol^−1, see Table 7) were estimated from spectral fluorescent data. In this case, we had to assume a simple equilibrium MCD (monomer, free) ⇄ MCD (monomer, bound). For these purposes, we used the Benesi–Hildebrand [59], Hill, and Scatchard formalisms (See Supplementary Materials, Equations (S9)–(S13)). For dsDNA, fitting according to the modified Scatchard equation was carried out assuming one dye molecule per one DNA turn (K1Sc at nSc = const = 10 b.p.), as well as varying both the constant (K2Sc) and the stoichiometric coefficient (nSc). In the case of ssDNA, nSc is given per one base; for HSA, nSc = 1.
# Distilled water, 0.01 M aqueous phosphate buffer saline solution (PBS; pH 7.4, containing 0.137 M NaCl and 0.0027 M KCl), ethanol, benzyl alcohol, isopentyl alcohol, acetonitrile, DMSO, 1,4-dioxane, chloroform, DMSO, acetone, methyl ethyl ketone, ethyl acetate (all analytical grade). Commercial chick erythrocyte DNA (Reanal, Budapest, Hungary) and human serum albumin (HSA, Sigma-Aldrich, St. Louis, MO, USA) were used.
# (§1) Absorption spectra were recorded on an SF-2000 spectrophotometer (Experimental-Construction Company “Spectrum”, St. Petersburg, Russia); fluorescence and fluorescence excitation spectra were recorded on a Fluorat-02-Panorama spectrofluorimeter (Group of Companies “Lumex”, St. Petersburg, Russia). The fluorescence and fluorescence excitation spectra were corrected for the spectral characteristics of the instrument (excitation channel signal) and sample transmission. Changes in the intrinsic fluorescence of HSA upon binding of MCD (in the presence of the dyes) were recorded in the synchronous fluorescence scanning (SFS) mode. In SFS mode, when registering spectra, a fixed difference Δλ= λfl − λex is maintained for the channels of excitation and registration. Synchronous scanning spectra were obtained at Δλ = 15 nm (fluorescence of tyrosine residues in the HSA molecule) and Δλ = 60 nm (fluorescence of tryptophan). The spectra were measured in 1 cm quartz semi-micro cells (Bio-Rad, Hercules, CA, USA).
# The equilibrium constants of MCD complexation with biomolecules (Ka, L mol^−1) were obtained from fluorescence spectra using the Benesi–Hildebrand [59], Hill, and Scatchard equations [61] (see Supplementary Materials, Equations (S9)–(S13)). Limits of detection (LOD) and quantification (LOQ) of biomolecules were determined from concentration plots of MCD fluorescence intensities (see Supplementary Materials, Equations (S14) and (S15)). […]
# (§2) 1. Spectral‐Fluorescent Titration
# In experiments on spectral‐fluorescence titration, MCD 1–4 were dosed from their concentrated st ock solutions in EtOH. Microvolumes (~0.5–5 μL) were dosed into the measuring cell (dilution 1:500 – 1:1000). […]
# Measurements of the intrinsic fluorescence of HSA in the presence of MCD were carried out at a constant concentration of HSA (cHSA ~ 2.0 × 10–5 mol L–1) by titration with increasing concentrations of dyes. After stirring, the absorption and fluorescence spectra of the dyes were recorded several times. […]
# HSA = molecular target: T2, HSA (Homo sapiens, UniProt P02768); assay: Quenching of HSA intrinsic fluorescence by MCD, synchronous fluorescence scanning; assay type: binding; settings: for decrease of the intensity of the SFS band of HSA, tyrosine: Δλ = 15 nm; for decrease of the intensity of the SFS band of HSA, tyrosine / decrease of the intensity of the SFS band of HSA, tryptophan: cMCD up to 5.3 × 10^−5 mol L^−1; for decrease of the intensity of the SFS band of HSA, tryptophan: Δλ = 60 nm
# T2 construct: purchased Sigma-Aldrich
# T2 sequence (P02768 25-609): as above
# Method: In order to determine the binding sites of HSA when interacting with MCD and to evaluate possible changes in these sites, the fluorescence spectra of tyrosine and tryptophan groups of HSA in the presence of MCD were measured in the synchronous fluorescence scanning (SFS) mode. The positions of the SF spectra of protein amino acid residues depend on their microsolvation (micropolarity of the medium). Thus, SFS allows for obtaining data on the effect of complexation on the microenvironment of fluorophore groups of protein molecules.
# Quenching of intrinsic HSA fluorescence was analyzed using the Stern–Volmer and Lehrer–Leavis relationships (see Equations (3) and (4)). The experimental dependences approximated by linear anamorphoses (R^2~0.9–0.98) were better in the coordinates of the Lehrer–Leavis model than in the Stern–Volmer model (the Stern–Volmer plots were nonlinear). The Lehrer–Leavis model assumes partial accessibility of HSA chromophores for quenching by MCD (the resulting quenching constants are shown in Table 6).
# as §1
# The Stern–Volmer (Equation (3)) and Lehrer–Leavis (Equation (4)) dependences were used to analyze the results of measurements of HSA intrinsic fluorescence (synchronous scanning mode) in the presence of MCD [56, 57]. (3) I0/I=1 + KSV[Q] (4) I0/(I0−I)=1 /α+ 1/(αKSV[Q]) where I0 and I are the fluorescence intensities in the absence and in the presence of a quencher, respectively; [Q] is the quencher concentration; KSV is the Stern–Volmer quenching constant; and α is the proportion of fluorophores in the biomolecule available to the quencher in the Lehrer–Leavis model. […]
# as §2
# In experiments on spectral‐fluorescence titration, MCD 1–4 were dosed from their concentrated st ock solutions in EtOH. Microvolumes (~0.5–5 μL) were dosed into the measuring cell (dilution 1:500 – 1:1000).
# In experiments with biomacromolecules, microvolumes of concentrated stock solutions of dsDNA, ssDNA and HSA were injected directly into the cells. Spectral‐fluorescent characteristics of MCD in complexes with biomacromolecules were studied by titration of dye solutions (cdye ~ 1 – 2 × 10–6 mol L–1) with increasing concentrations of biopolymers. Measurements of the intrinsic fluorescence of HSA in the presence of MCD were carried out at a constant concentration of HSA (cHSA ~ 2.0 × 10–5 mol L–1) by titration with increasing concentrations of dyes. After stirring, the absorption and fluorescence spectra of the dyes were recorded several times. Upon registration, the fluorescence and fl uorescence excitation spectra were corrected for the spectral characteristic of the excitation channel and for the absorption of […]
# 2. Fluorescence Quantum Yields
# Determination of the fluorescence quantum yields of MCD 1–4 was performed using the standard […]
structure (smiles),measurement,setting,value
CCN1/C(=C/c2sc3ccccc3[n+]2CC)Sc2ccccc21 [MCD 3],"LR, linear portion of fluorescence intensity vs. concentration plot",[1]; HSA,0 to 1 µmol/L
same,"nHill, Hill coefficient",[1]; HSA,0.59
same,"nSc, stoichiometric coefficient (Scatchard)",[1],1
same,"KeffHill, effective complexation constant (Hill)","[1]; HSA, PBS buffer",27800 L/mol
same,"KeffBH, effective complexation constant (Benesi–Hildebrand)","[1]; HSA, PBS buffer",17600 L/mol
same,"αb, proportion of bound dye",[1]; HSA,50%
same,"Fmax/F0, fluorescence growth at 100% binding",[1]; HSA,26
same,"K2Sc, complexation constant (Scatchard)",[1]; HSA,34000 L/mol
same,"φfl^b, fluorescence quantum yield of the dye in the presence of biopolymer",[1],50%
same,"φfl^b, fluorescence quantum yield of the dye in the presence of biopolymer",[1]; listed as 3,~50 ± 6%
same,LOD,[1],77 nM
same,LOQ,[1],230 nM
same,"KSV, Stern–Volmer quenching constant (Lehrer–Leavis model)","HSA; Trp, SFS Δλ = 60 nm",6.12e+07 L/mol
same,"α, proportion of fluorophores available to the quencher (Lehrer–Leavis model)","HSA; Trp, SFS Δλ = 60 nm",0.82
same,"KSV, Stern–Volmer quenching constant (Lehrer–Leavis model)","HSA; Tyr, SFS Δλ = 15 nm",112000 L/mol
same,"α, proportion of fluorophores available to the quencher (Lehrer–Leavis model)","HSA; Tyr, SFS Δλ = 15 nm",0.15
same,"decrease of the intensity of the SFS band of HSA, tyrosine",HSA,11%
same,"decrease of the intensity of the SFS band of HSA, tryptophan",HSA,6%
CCN1/C(=C/c2ccc3ccccc3[n+]2CC)C=Cc2ccccc21 [MCD 4],"LR, linear portion of fluorescence intensity vs. concentration plot",[1]; HSA,0.7–7.5 ^2 µmol L^−1
same,"nHill, Hill coefficient",[1]; HSA,0.61
same,"nSc, stoichiometric coefficient (Scatchard)",[1],1
same,"KeffHill, effective complexation constant (Hill)","[1]; HSA, PBS buffer",1830 L/mol
same,"KeffBH, effective complexation constant (Benesi–Hildebrand)","[1]; HSA, PBS buffer",4820 L/mol
same,"αb, proportion of bound dye",[1]; HSA,20%
same,"Fmax/F0, fluorescence growth at 100% binding",[1]; HSA,109
same,"K2Sc, complexation constant (Scatchard)",[1]; HSA,17000 L/mol
same,"φfl^b, fluorescence quantum yield of the dye in the presence of biopolymer",[1],~0.5 ± 0.1%
same,LOD,[1],730 nM
same,drop in the apparent extinction coefficients,[1]; interaction with HSA,1.5–2 fold
same,LOQ,[1],2200 nM
same,"KSV, Stern–Volmer quenching constant (Lehrer–Leavis model)","HSA; Trp, SFS Δλ = 60 nm",21000 L/mol
same,"α, proportion of fluorophores available to the quencher (Lehrer–Leavis model)","HSA; Trp, SFS Δλ = 60 nm",0.60
same,"KSV, Stern–Volmer quenching constant (Lehrer–Leavis model)","HSA; Tyr, SFS Δλ = 15 nm",38200 L/mol
same,"α, proportion of fluorophores available to the quencher (Lehrer–Leavis model)","HSA; Tyr, SFS Δλ = 15 nm",0.33
same,"decrease of the intensity of the SFS band of HSA, tyrosine",HSA,21%
same,"decrease of the intensity of the SFS band of HSA, tryptophan",HSA,22%
CC[N+](CC)(CC)CCC[n+]1ccc(/C=C2\Sc3ccccc3N2C)c2ccc(O)cc21 [MCD 1],"LR, linear portion of fluorescence intensity vs. concentration plot",[1]; HSA,0–0.6 ^3 µmol L^−1
same,"nHill, Hill coefficient",[1]; HSA,0.89
same,"nSc, stoichiometric coefficient (Scatchard)",[1],1
same,lower sensitivity to HSA than to dsDNA,[1]; HSA versus dsDNA,about 37 times
same,"KeffHill, effective complexation constant (Hill)","[1]; HSA, PBS buffer",3350 L/mol
same,"εf/εb, relative change in molar extinction coefficient on complexation","[1]; HSA, PBS buffer",1.59
same,"KeffBH, effective complexation constant (Benesi–Hildebrand)","[1]; HSA, PBS buffer",8000 L/mol
same,"αb, proportion of bound dye",[1]; HSA,27%
same,"Fmax/F0, fluorescence growth at 100% binding",[1]; HSA,65
same,"K2Sc, complexation constant (Scatchard)",[1]; HSA,7300 L/mol
same,hypochromia of the absorption band,[1]; cHSA = 2.5 × 10^−7 mol L^−1,~ 25%
same,"φfl^b, fluorescence quantum yield of the dye in the presence of biopolymer",[1],~1 ± 0.1%
same,hypochromia of the absorption band,"[1]; cHSA~9 × 10^−6 mol L^−1, crel(HSA) = 3",~ 36%
same,LOD,[1],270 nM
same,LOQ,[1],890 nM
same,"KSV, Stern–Volmer quenching constant (Lehrer–Leavis model)","HSA; Trp, SFS Δλ = 60 nm",40400 L/mol
same,"α, proportion of fluorophores available to the quencher (Lehrer–Leavis model)","HSA; Trp, SFS Δλ = 60 nm",0.40
same,"KSV, Stern–Volmer quenching constant (Lehrer–Leavis model)","HSA; Tyr, SFS Δλ = 15 nm",21800 L/mol
same,"α, proportion of fluorophores available to the quencher (Lehrer–Leavis model)","HSA; Tyr, SFS Δλ = 15 nm",0.61
same,"decrease of the intensity of the SFS band of HSA, tyrosine",HSA,31%
same,"decrease of the intensity of the SFS band of HSA, tryptophan",HSA,26%

# — PMC10531095, “Photonics of Some Monomethine Cyanine Dyes in Solutions and in Complexes with Biomolecules” (International Journal of Molecular Sciences, 2023)
